This note sets out measurements from US10774064B2 (Cadent Therapeutics, Inc., priority 2016, dated 2020).

The target of this test is T1, small-conductance Ca2+-activated K+ channels (SK channels, subtype 2) (Homo sapiens, UniProt Q9H2S1).
T1 construct: expressed in transfected cells; host or cells: HEK293
In words: whole-cell patch-clamp of ionic current through SK2 channels in HEK293 cells (SC100). It is filed as cell-based. The conditions noted are these: concentration that increases the basal current by 100%; HEK293 cells expressing SK2 channels. The gist of the method:
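Whole-cell patch-clamp recording of current in HEK293 cells expressing SK2 channels. SC100 is the compound concentration that increases basal current by 100%.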
(The patch-clamp technique gives a direct electrical read-out from membranes.)

As for `O=C1CCCN1Cc1cc(NC2CCC(F)(F)CC2)nc(-n2ccc(CF)n2)n1` [Compound 321, 1-((6-((4,4-difluorocyclohexyl)amino)-2-(3-(fluoromethyl)-1H-pyrazol-1-yl)pyrimidin-4-yl)methyl)pyrrolidin-2-one], the SC100 result is given as “+ (+ means >1 uM)”.

Turning to `CC(C)(C)C(=O)N1CC(Oc2cc(NC3CCC(F)(F)CC3)nc(-c3nc(C(F)(F)F)cs3)n2)C1` [Compound 322, 1-(3-((6-((4,4-difluorocyclohexyl)amino)-2-(4-(trifluoromethyl)thiazol-2-yl)pyrimidin-4-yl)oxy)azetidin-1-yl)-2,2-dimethylpropan-1-one], the SC100 entry is “++ (++ means 200 nM-1000 nM)”.

Regarding `O=C(N1CC(Oc2cc(NC3CCC(F)(F)CC3)nc(-c3nc(C(F)(F)F)cs3)n2)C1)C(F)(F)F` [Compound 323, 1-(3-((6-((4,4-difluorocyclohexyl)amino)-2-(4-(trifluoromethyl)thiazol-2-yl)pyrimidin-4-yl)oxy)azetidin-1-yl)-2,2,2-trifluoroethan-1-one], the SC100 result is on record as “++ (++ means 200 nM-1000 nM)”.

Regarding `COC(=O)N1CC(Oc2cc(NC3CCC(F)(F)CC3)nc(-c3nc(C(F)(F)F)cs3)n2)C1` [Compound 324, methyl 3-((6-((4,4-difluorocyclohexyl)amino)-2-(4-(trifluoromethyl)thiazol-2-yl)pyrimidin-4-yl)oxy)azetidine-1-carboxylate], the SC100 entry is “++ (++ means 200 nM-1000 nM)”.

In the case of `CC(C)C1CC(=O)N1Cc1cc(NC2CCC(F)(F)CC2)nc(-n2ccc(CF)n2)n1` (stereo not drawn) [Compound 325, 1-((6-((4,4-difluorocyclohexyl)amino)-2-(3-(fluoromethyl)-1H-pyrazol-1-yl)pyrimidin-4-yl)methyl)-4-isopropylazetidin-2-one], the SC100 entry is recorded as “+ (+ means >1 uM)”.

Consider `CC1(O)CN(c2cc(NC3CCC(F)(F)CC3)nc(-n3ccc(CF)n3)c2)C1` [Compound 326, 1-(2-((4,4-difluorocyclohexyl)amino)-6-(3-(fluoromethyl)-1H-pyrazol-1-yl)pyridin-4-yl)-3-methylazetidin-3-ol], for which the SC100 entry was “++ (++ means 200 nM-1000 nM)”.

In the case of `CC(=O)NCc1cc(NC2CCC(F)(F)CC2)nc(-n2ccc(CF)n2)n1` [Compound 327, N-((6-((4,4-difluorocyclohexyl)amino)-2-(3-(fluoromethyl)-1H-pyrazol-1-yl)pyrimidin-4-yl)methyl)acetamide], the SC100 entry is “+ (+ means >1 uM)”.

With `O=C(NCc1cc(NC2CCC(F)(F)CC2)nc(-n2ccc(CF)n2)n1)C1CCC1` [Compound 328, N-((6-((4,4-difluorocyclohexyl)amino)-2-(3-(fluoromethyl)-1H-pyrazol-1-yl)pyrimidin-4-yl)methyl)cyclobutanecarboxamide], the SC100 result is “+ (+ means >1 uM)”.

`CC(C)(C)C(=O)N1CC(Oc2cc(NC3CCC(F)(F)CC3)nc(-c3nc(C(F)F)cs3)n2)C1` [Compound 329, 1-(3-((6-((4,4-difluorocyclohexyl)amino)-2-(4-(difluoromethyl)thiazol-2-yl)pyrimidin-4-yl)oxy)azetidin-1-yl)-2,2-dimethylpropan-1-one]: the SC100 entry is “++ (++ means 200 nM-1000 nM)”.

Take `COC(=O)N1CC(Oc2cc(NC3CCC(F)(F)CC3)nc(-c3nc(C(F)F)cs3)n2)C1` [Compound 330, methyl 3-((6-((4,4-difluorocyclohexyl)amino)-2-(4-(difluoromethyl)thiazol-2-yl)pyrimidin-4-yl)oxy)azetidine-1-carboxylate]: the SC100 entry was “++ (++ means 200 nM-1000 nM)”.

With `CC1NC(c2cc(NC3CCC(F)(F)CC3)nc(-n3ccc(CF)n3)n2)=NO1` (stereo not drawn) [Compound 331, N-(4,4-difluorocyclohexyl)-2-(3-(fluoromethyl)-1H-pyrazol-1-yl)-6-(5-methyl-4,5-dihydro-1,2,4-oxadiazol-3-yl)pyrimidin-4-amine], the SC100 entry is “+ (+ means >1 uM)”.

In the case of `FC1(F)CCC(Nc2cc(N3CCOCC3)nc(-c3nc(C(F)(F)F)cs3)n2)CC1` [Compound 332, N-(4,4-difluorocyclohexyl)-6-morpholino-2-(4-(trifluoromethyl)thiazol-2-yl)pyrimidin-4-amine], the SC100 entry was “++ (++ means 200 nM-1000 nM)”.

As for `O=C(NCc1cc(NC2CCC(F)(F)CC2)nc(-n2ccc(CF)n2)n1)C1COC1` [Compound 333, N-((6-((4,4-difluorocyclohexyl)amino)-2-(3-(fluoromethyl)-1H-pyrazol-1-yl)pyrimidin-4-yl)methyl)oxetane-3-carboxamide], the SC100 result is on record as “+ (+ means >1 uM)”.

On to `Cc1nc(-c2cc(NC3CCC(F)(F)CC3)nc(-n3ccc(CF)n3)n2)no1` [Compound 334, N-(4,4-difluorocyclohexyl)-2-(3-(fluoromethyl)-1H-pyrazol-1-yl)-6-(5-methyl-1,2,4-oxadiazol-3-yl)pyrimidin-4-amine], for which the SC100 entry is recorded as “+ (+ means >1 uM)”.

As to `COC(=O)N1CC(OCc2cc(NC3CCC(F)(F)CC3)nc(-n3ccc(CF)n3)n2)C1` [Compound 335, methyl 3-((6-((4,4-difluorocyclohexyl)amino)-2-(3-(fluoromethyl)-1H-pyrazol-1-yl)pyrimidin-4-yl)methoxy)azetidine-1-carboxylate], the SC100 entry is given as “++ (++ means 200 nM-1000 nM)”.

Regarding `FCc1csc(-c2nc(NC3CCC(F)(F)CC3)cc(N3CCOCC3)n2)n1` [Compound 336, N-(4,4-difluorocyclohexyl)-2-(4-(fluoromethyl)thiazol-2-yl)-6-morpholinopyrimidin-4-amine], the SC100 result is “++ (++ means 200 nM-1000 nM)”.

Regarding `CC(O)c1csc(-c2nc(NC3CCC(F)(F)CC3)cc(OC3CN(C(=O)C(C)(C)C)C3)n2)n1` (stereo not drawn) [Compound 337], the SC100 entry is reported as “+ (+ means >1 uM)”.

As for `FCc1ccn(-c2nc(NC3CCC(F)(F)CC3)cc(N3CC4(COC4)C3)n2)n1` [Compound 338, N-(4,4-difluorocyclohexyl)-2-(3-(fluoromethyl)-1H-pyrazol-1-yl)-6-(2-oxa-6-azaspiro[3.3]heptan-6-yl)pyrimidin-4-amine], the SC100 entry is “++ (++ means 200 nM-1000 nM)”.

In the case of `FC(F)c1csc(-c2nc(NC3CCC(F)(F)CC3)cc(N3CCOCC3)n2)n1` [Compound 339, N-(4,4-difluorocyclohexyl)-2-(4-(difluoromethyl)thiazol-2-yl)-6-morpholinopyrimidin-4-amine], the SC100 result is “++ (++ means 200 nM-1000 nM)”.

As to `CC(O)c1csc(-c2nc(NC3CCC(F)(F)CC3)cc(N3CCOCC3)n2)n1` (stereo not drawn) [Compound 340, 1-(2-(4-((4,4-difluorocyclohexyl)amino)-6-morpholinopyrimidin-2-yl)thiazol-4-yl)ethan-1-ol], the SC100 result is listed as “+ (+ means >1 uM)”.

With `CCC(=O)N1CC(Oc2cc(NC3CCC(F)(F)CC3)nc(-c3nc(CF)cs3)n2)C1` [Compound 341, 1-(3-((6-((4,4-difluorocyclohexyl)amino)-2-(4-(fluoromethyl)thiazol-2-yl)pyrimidin-4-yl)oxy)azetidin-1-yl)propan-1-one], the SC100 result is “++ (++ means 200 nM-1000 nM)”.

Consider `CC(C)C(=O)N1CC(Oc2cc(NC3CCC(F)(F)CC3)nc(-c3nc(CF)cs3)n2)C1` [Compound 342, 1-(3-((6-((4,4-difluorocyclohexyl)amino)-2-(4-(fluoromethyl)thiazol-2-yl)pyrimidin-4-yl)oxy)azetidin-1-yl)-2-methylpropan-1-one], for which the SC100 result is on record as “++ (++ means 200 nM-1000 nM)”.

Regarding `Cc1cc(C)n(-c2cc(C(O)c3ncco3)cc(NC3CCC(F)(F)CC3)n2)n1` (stereo not drawn) [Compound 343, (2-((4,4-difluorocyclohexyl)amino)-6-(3,5-dimethyl-1H-pyrazol-1-yl)pyridin-4-yl)(oxazol-2-yl)methanol], the SC100 entry is “++ (++ means 200 nM-1000 nM)”.

As to `COC(=O)N1CC(Oc2cc(NC3CCC(F)(F)CC3)nc(-c3nc(C(C)O)cs3)n2)C1` (stereo not drawn) [Compound 344, methyl 3-((6-((4,4-difluorocyclohexyl)amino)-2-(4-(1-hydroxyethyl)thiazol-2-yl)pyrimidin-4-yl)oxy)azetidine-1-carboxylate], the SC100 result is “+ (+ means >1 uM)”.

For `Cc1cn(-c2cc(OC3COC3)cc(NC3CCC(F)(F)CC3)n2)nc1CF` [Compound 345, N-(4,4-difluorocyclohexyl)-6-(3-(fluoromethyl)-4-methyl-1H-pyrazol-1-yl)-4-(oxetan-3-yloxy)pyridin-2-amine], the SC100 entry is recorded as “++ (++ means 200 nM-1000 nM)”.

`FCc1ccn(-c2nc(NC3CCC(F)(F)CC3)cc(OC3CC(F)C3)n2)n1` (stereo not drawn) [Compound 346, N-(4,4-difluorocyclohexyl)-6-(3-fluorocyclobutoxy)-2-(3-(fluoromethyl)-1H-pyrazol-1-yl)pyrimidin-4-amine]: the SC100 result is “+ (+ means >1 uM)”.

`FCc1ccn(-c2nc(NC3CCC(F)(F)CC3)cc(OC3CC(F)(F)C3)n2)n1` [Compound 347, 6-(3,3-difluorocyclobutoxy)-N-(4,4-difluorocyclohexyl)-2-(3-(fluoromethyl)-1H-pyrazol-1-yl)pyrimidin-4-amine]: the SC100 entry is listed as “++ (++ means 200 nM-1000 nM)”.

Regarding `CC(C)C(=O)NCc1cc(NC2CCC(F)(F)CC2)nc(-n2ccc(CF)n2)c1` [Compound 348, N-((2-((4,4-difluorocyclohexyl)amino)-6-(3-(fluoromethyl)-1H-pyrazol-1-yl)pyridin-4-yl)methyl)isobutyramide], the SC100 entry is given as “++ (++ means 200 nM-1000 nM)”.

Regarding `CC(=O)NCc1cc(NC2CCC(F)(F)CC2)nc(-n2cc(C)c(CF)n2)c1` [Compound 349, N-((2-((4,4-difluorocyclohexyl)amino)-6-(3-(fluoromethyl)-4-methyl-1H-pyrazol-1-yl)pyridin-4-yl)methyl)acetamide], the SC100 entry was “++ (++ means 200 nM-1000 nM)”.

As for `Cc1cc(C)n(-c2nc(NC3CCCC(F)(F)C3)cc(C(N)=O)n2)n1` (stereo not drawn) [Compound 350, 6-((3,3-difluorocyclohexyl)amino)-2-(3,5-dimethyl-1H-pyrazol-1-yl)pyrimidine-4-carboxamide], the SC100 result is listed as “+ (+ means >1 uM)”.
